Experimental data as given in patent publication US9016829B2, “Ink composition, ink set, and image forming method” (FUJIFILM Corporation, priority 2011, dated 2015).

Assay: Solubility with respect to pure water
Assay type: physicochemical
Settings: 25° C.

solubility with respect to pure water: water (25° C.): 7.6 g/l)
SMILES: CC(C)(O)C(=O)c1ccc(OCCO)cc1 [IRGACURE 2959]
